Laboratory results reported in US5543396A, “Proline phosphonate derivatives” (priority 1994, dated 1996).

Legend:
[1] = biological target: DPP-IV (Homo sapiens, UniProt P27487); assay: Stability of inhibited DPP-IV; conditions: for recovery of enzyme activity of inhibited DPP-IV: after 24 h, excess inhibitor removed by centrifugation; for DPP-IV enzyme activity found after incubation with inhibitor: inhibitor 0.042-0.42 mM, pH 7.8 buffer, incubation for 1 h
Protocol: Excess inhibitors in the inhibited enzyme solution were removed by centrifugation of the diluted enzyme solution twice using Amicon microconcentrators.
Stability of Inhibited DPP-IV. […] Excess inhibitors was removed from diluted solutions of inactivated enzyme by centrifugation three times at 0° C. for 1 h each in Amicon Centricon-10 microconcentrators following addition of buffer. The enzyme activity of solution was assayed at various intervals as described above.

[2] = Half-lives for spontaneous hydrolysis of inhibitors in buffer; format: physicochemical; conditions: 0.05 M Tris, pH 7.8 buffer, 8% Me2SO, 23° C.
Description: Determination of Half-Lives for Spontaneous Hydrolysis of Inhibitors in Buffer. […] The spontaneous hydrolysis was monitored by following the increase in absorbance at 270 nm for phosphonates with phenoxy groups, at 280 nm for compounds with 4-.chlorophenoxy groups or at 277 nm for the 4-fluorophenoxy derivative. Half-lives were obtained from first-order plots of ln (Af -At) vs time, where At is the absorbance of the mixture at time t, and Af is the final absorbance of phosphonate monophenyl ester and phenol (or corresponding compounds). This was obtained from the absorbance of the solution which had remained constant for a few hours. All the plots gave correlation coefficients of 0.95 or greater.

[3] = biological target: T1, Human Placenta DPP-IV (Homo sapiens, UniProt P27487); assay: Inhibition of DPP-IV by peptidyl phosphonates, incubation method; format: biochemical; conditions: for % Inhibition 2 min / % Inhibition 30 min: [I] 0.12 mM, 0.05 M Tris pH 7.8, 5% Me2SO, substrate TFA.Ala-Pro-AFC 0.190 mM; for % Inhibition 2 min / % Inhibition 30 min / kobs /[I] for DPP-IV: 23° C.; for kobs /[I] for DPP-IV: 0.05 M Tris pH 7.8, 8% Me2SO, substrate TFA.Ala-Pro-AFC 0.2 mM; for inhibition of DPP-IV, in words: inhibitor 0.12 mM
T1 construct: from tissue; host or cells: human placenta
Protocol: Standard Assay of DPP-IV. DPP-IV was assayed in 450 μL of 50 mM Tris, pH 7.8, 0.2 mM Ala-Pro-AFC (freshly diluted from a 20 mM stock in DMF), and 5 μL of enzyme solution at 30° C. or in 2 mL of buffer, 0.2 mM Ala-Pro-AFC (diluted from 8 mM stock in Me2 SO) at 23° C. Fluorescence was measured at 400 nm excitation and 505 nm emission. One unit of DPP-IV is defined as the amount of enzyme that will hydrolyze 1.0 μmole of Ala-Pro-AFC per min at 25° C. and pH 7.8.
Enzyme Irreversible Inactivation--Incubation Method. An aliquot of inhibitor (25 or 50 μL) in Me2 SO was added to 0.28-0.55 mL of a buffered enzyme solution (0.83 munits for DPP-IV; 2.1 units for acetylcholinesterase; 0.07-4.5 μM for other enzymes) to initiate the inactivation reaction. Aliquots (20-250 μL) were withdrawn at various intervals and the residual enzymatic activity was measured at 23° C. as described below. The buffers were: 0.05M Tris, pH 7.8 for DPP-IV; 0.1M Hepes, 0.01M CaCl2, pH 7.5 for bovine trypsin; 0.1M Hepes, 0.5M NaCl, pH 7.5 for bovine chymotrypsin, PPE, and HLE; 0.1M phosphate, pH 7.5 for acetylcholinesterase; 50 mM Tris-HCl, 2 mM EDTA, 5 mM cysteine, (freshly prepared) pH 7.5 buffer for papain and 100 mM KH2 PO4, 1.33 mM EDTA, 2.7 mM cysteine (freshly prepared), pH 6.0 buffer for cathepsin B. […] The inhibitor concentrations are shown in the appropriate table. Stock solutions of substrates were prepared in Me2 SO and stored at -20° C. DPP-IV was assayed with TFA.Ala-Pro-AFC. Papain and cathepsin B were assayed with Bz-Arg-AMC and Z-Arg-Arg-AMC, respectively. The release of AMC were followed fluorometrically (excitation at 380 nm and emmision at 460 nm for AMC). Acetylcholinesterase was assayed with acetylthiocholine iodide in the presence of DTNB at 412 nm. Trypsin was assayed with Z-Phe-Gly-Arg-.rho.NA.HCl (0.09 mM), chymotrypsin was assayed with Suc-Phe-Thr-Phe-.rho.NA (0.48 mM), PPE and HLE were assayed with Suc-Ala-Ala-Ala-.rho.NA (0.44 mM) and MeO-Suc-Ala-Ala-Pro-Val-.rho.NA (0.24 mM), respectively. Peptide .rho.-nitroanilide hydrolysis was measured at 410 nm (ε410 =8,800 M ^1 cm^-1). Pseudo first-order inactivation rate constants (kobs) were obtained from plots of In vt /vo vs time, and the correlation coefficients were greater than 0.98.

[4] = biological target: Chymotrypsin (Bos taurus, UniProt P00766); assay: Inhibition of chymotrypsin, incubation method; format: biochemical, bovine; conditions: for kobs /[I] Chymotrypsin: [I] 0.42 mM, 0.1 M Hepes, 0.5 M NaCl, pH 7.5, 8-9% Me2SO, 23° C., Suc-Phe-Thr-Phe-pNA 0.48 mM
Protocol: Inactivation rates of serine proteases by aryl diesters of peptidyl derivatives of α-aminoalkylphosphonates were measured by the incubation method. An aliquot of inhibitor (25 or 50 μl) in Me2 SO was added to a buffered enzyme solution (0.01-2.3 μM) to initiate the inactivation. Aliquots (50 μl) were withdrawn at various intervals and the residual enzymatic activity was measured. Me2 SO concentration in the reaction mixture was 8-12% (v/v). A 0.1M HEPES, 0.01M CaCl2, pH 7.5 buffer was utilized for trypsin and trypsin-like enzymes. A 0.1M HEPES, 0.5M NaCl, pH 7.5, was utilized for the other serine proteases. Peptide thioesters or peptide nitroanilides with the appropriate sequences were used as substrates for various serine proteases. All peptide thioesters hydrolysis rates were measured with the assay mixture containing 4,4'-dithiodipyridine (ε324 =19800M^-1 cm^-1). Peptide 4-nitroanilide hydrolysis was measured at 410 nm (ε410 =8800 M ^-1 cm^-1). First order inactivation rate constants (kobs) were obtained from plots of ln vt /vo vs time, and the correlation coefficients were greater then 0.98.
Enzyme Irreversible Inactivation--Incubation Method. An aliquot of inhibitor (25 or 50 μL) in Me2 SO was added to 0.28-0.55 mL of a buffered enzyme solution (0.83 munits for DPP-IV; 2.1 units for acetylcholinesterase; 0.07-4.5 μM for other enzymes) to initiate the inactivation reaction. Aliquots (20-250 μL) were withdrawn at various intervals and the residual enzymatic activity was measured at 23° C. as described below. The buffers were: 0.05M Tris, pH 7.8 for DPP-IV; 0.1M Hepes, 0.01M CaCl2, pH 7.5 for bovine trypsin; 0.1M Hepes, 0.5M NaCl, pH 7.5 for bovine chymotrypsin, PPE, and HLE; 0.1M phosphate, pH 7.5 for acetylcholinesterase; 50 mM Tris-HCl, 2 mM EDTA, 5 mM cysteine, (freshly prepared) pH 7.5 buffer for papain and 100 mM KH2 PO4, 1.33 mM EDTA, 2.7 mM cysteine (freshly prepared), pH 6.0 buffer for cathepsin B. The Me2 SO concentration in the reaction mixtures was 8-9% (v/v). The inhibitor concentrations are shown in the appropriate table. Stock solutions of substrates were prepared in Me2 SO and stored at -20° C. DPP-IV was assayed with TFA.Ala-Pro-AFC. Papain and cathepsin B were assayed with Bz-Arg-AMC and Z-Arg-Arg-AMC, respectively. The release of AMC were followed fluorometrically (excitation at 380 nm and emmision at 460 nm for AMC). Acetylcholinesterase was assayed with acetylthiocholine iodide in the presence of DTNB at 412 nm. Trypsin was assayed with Z-Phe-Gly-Arg-.rho.NA.HCl (0.09 mM), chymotrypsin was assayed with Suc-Phe-Thr-Phe-.rho.NA (0.48 mM), PPE and HLE were assayed with Suc-Ala-Ala-Ala-.rho.NA (0.44 mM) and MeO-Suc-Ala-Ala-Pro-Val-.rho.NA (0.24 mM), respectively. Peptide .rho.-nitroanilide hydrolysis was measured at 410 nm (ε410 =8,800 M ^1 cm^-1). […]

[5] = Hydrolysis in human plasma; format: in vitro ADME
Description: Furthermore, they show excellent stability in human plasma. For example Suc-Val-Pro-Phe^P (OPh)2 has a hydrolysis half-time in human plasma of about 20 hrs. […] Thus they can be used under a variety of conditions. Phosphonates have the additional advantage of being very stable in plasma and will have a high effectiveness in […] vivo due to their long lifetimes.

T1 sequence (P27487 whole entry): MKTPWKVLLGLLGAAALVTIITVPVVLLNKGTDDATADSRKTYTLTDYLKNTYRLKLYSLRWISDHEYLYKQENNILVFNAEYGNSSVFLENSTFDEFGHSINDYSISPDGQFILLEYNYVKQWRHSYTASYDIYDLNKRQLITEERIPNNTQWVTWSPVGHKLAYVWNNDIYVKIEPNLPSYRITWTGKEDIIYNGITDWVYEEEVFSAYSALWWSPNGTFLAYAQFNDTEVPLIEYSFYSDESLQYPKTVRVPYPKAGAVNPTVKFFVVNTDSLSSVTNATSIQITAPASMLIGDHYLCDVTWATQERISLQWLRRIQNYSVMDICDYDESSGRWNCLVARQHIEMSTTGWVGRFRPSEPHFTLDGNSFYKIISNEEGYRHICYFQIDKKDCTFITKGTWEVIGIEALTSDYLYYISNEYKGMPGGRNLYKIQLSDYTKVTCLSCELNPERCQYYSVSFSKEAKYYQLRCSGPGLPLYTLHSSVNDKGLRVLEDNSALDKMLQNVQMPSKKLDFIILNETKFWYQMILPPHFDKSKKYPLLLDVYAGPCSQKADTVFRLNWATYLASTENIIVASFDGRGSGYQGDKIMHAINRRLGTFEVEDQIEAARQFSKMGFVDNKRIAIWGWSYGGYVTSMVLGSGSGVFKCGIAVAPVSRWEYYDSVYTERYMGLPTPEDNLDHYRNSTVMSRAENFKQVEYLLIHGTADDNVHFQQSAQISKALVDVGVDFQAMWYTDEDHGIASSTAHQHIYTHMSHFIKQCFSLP
Chain of DPP-IV (P27487 whole entry): as above

| Compound | recovery of enzyme activity of inhibited DPP-IV [1] | DPP-IV enzyme activity found after incubation with inhibitor [1] | t1/2, half-life for hydrolysis [2] [h] | % Inhibition 2 min ([3]; 2 min incubation) [%] | % Inhibition 30 min ([3]; 30 min incubation) [%] | kobs /[I] for DPP-IV ([3]; [I] 0.42 mM) [M⁻¹ s⁻¹] | inhibition of DPP-IV, in words ([3]; 30 min incubation) | inhibition of DPP-IV, in words ([3]; 2 min incubation) | inhibition of chymotrypsin, in words [4] | kobs /[I] Chymotrypsin [4] [M⁻¹ s⁻¹] | kobs /[I] for DPP-IV ([3]; [I] 0.042 mM) [M⁻¹ s⁻¹] | hydrolysis half-time in human plasma [5] |
| --- | --- | --- | --- | --- | --- | --- | --- | --- | --- | --- | --- | --- |
| C[C@H](N)C(=O)N1CCCC1P(=O)(Oc1ccccc1)Oc1ccccc1.Cl (some centres unmarked) [Compound 6, Diphenyl Alanylpyrrolidine-2-phosphonate Hydrochloride] | did not regain enzyme activity | 30% | 23.1 | 0 | 33 | 1.2 | showed some inhibitory potency |  |  |  |  |  |
| CC(=O)O.C[C@H](N)C(=O)N1CCCCC1P(=O)(Oc1ccccc1)Oc1ccccc1 (some centres unmarked) [Compound 7, Diphenyl Alanylpiperidine-2-phosphonate Acetate] | did not regain enzyme activity | no enzyme activity | > 72 | 0 | 100 | 12.6 | showed some inhibitory potency |  |  |  |  |  |
| CC(=O)O.C[C@H](N)C(=O)N1CCCCC1P(=O)(O)Oc1ccccc1 (some centres unmarked) [Compound 8, Monophenyl Alanylpiperidine-2-phosphonate Acetate] |  |  |  | 0 | 0 |  | did not show any inhibition |  |  |  |  |  |
| Br.N[C@@H](Cc1ccccc1)C(=O)N1CCCC1P(=O)(Oc1ccccc1)Oc1ccccc1 (some centres unmarked) [Compound 9, Diphenyl Phenylalanylpyrrolidine-2-phosphonate Hydrobromide] |  |  |  | 0 | 0 |  | did not show any inhibition |  |  |  |  |  |
| Br.Br.NCCCC[C@H](N)C(=O)N1CCCC1P(=O)(Oc1ccccc1)Oc1ccccc1 (some centres unmarked) [Compound 10, Diphenyl Lysylpyrrolidine-2-phosphonate Dihydrobromide] |  |  | 52 | 0 | 0 | 1.7 | did not show any inhibition |  |  |  |  |  |
| Cl.Cl.NCCCC[C@H](N)C(=O)N1CCCCC1P(=O)(Oc1ccccc1)Oc1ccccc1 (some centres unmarked) [Compound 11, Diphenyl Lysylpiperidine-2-phosphonate Dihydrochloride] |  |  | > 48 | 35 | 88 | 4.2 | showed some inhibitory potency | effectively inhibited |  |  |  |  |
| C[C@H](N)C(=O)N1CCCC1P(=O)(Oc1ccc(Cl)cc1)Oc1ccc(Cl)cc1.Cl (some centres unmarked) [Compound 12, Di(4-chlorophenyl) Alanylpyrrolidine-2-phosphonate Hydrochloride] | did not regain enzyme activity |  | 5.3 | 0 | 100 | 28 | showed some inhibitory potency |  | very slowly | 26 |  |  |
| C[C@H](N)C(=O)N1CCCCC1P(=O)(Oc1ccc(Cl)cc1)Oc1ccc(Cl)cc1.Cl (some centres unmarked) [Compound 13, Di(4-chlorophenyl) Alanylpiperidine-2-phosphonate Hydrochloride] | did not regain enzyme activity | no enzyme activity | 67 | 88 | 100 |  | showed some inhibitory potency | effectively inhibited | very slowly | 18 | 156 |  |
| C[C@H](N)C(=O)N1CCCCC1P(=O)(Oc1ccc(F)cc1)Oc1ccc(F)cc1.Cl (some centres unmarked) [Compound 14, Di(4-fluorophenyl) Alanyl-piperidine-2-phosphonate Hydrochloride] |  | no enzyme activity | > 68 |  |  | 12 |  |  |  |  |  |  |
| Suc-Val-Pro-Phe^P (OPh)2 |  |  |  |  |  |  |  |  |  |  |  | about 20 hrs |
